Results as given in ChEMBL document CHEMBL3714737, “Small molecule modulators of G protein-coupled receptor six” (2002).
Active and inactive are the calls of the source. The calls are words filed in the database; no cut-off is given here.

How the values were obtained:
Rattus norvegicus [1] = experiment: Reduction in food intake in 24 hrs food-deprived Sprague-Dawley rat assessed as food intake level at 54 mg/kg, po followed by standard chow pellets feeding and measured 8 hrs post dose (reference value: 14g); type: functional
Rattus norvegicus [2] = experiment: Induction of sedation in non-food-deprived Sprague-Dawley rat subjected to pre-pulse of 12 db followed by 120 db pulse assessed as animal jump height level at 6.75 mg/kg, po dosed […] before test; type: organism-based; details: in vivo
Rattus norvegicus [3] = experiment: Induction of sedation in non-food-deprived Sprague-Dawley rat subjected to pre-pulse of 12 db followed by 120 db pulse assessed as animal jump height level at 13.5 and 54 mg/kg, po dosed […] before test; type: organism-based; details: in vivo
Rattus norvegicus [4] = experiment: Induction of sedation in ip dosed Sprague-Dawley rat assessed as absence of anxiety-like behavior after 16 hrs post dose; type: organism-based; details: in vivo
Rattus norvegicus [5] = experiment: Effect on motor function in ip dosed Sprague-Dawley rat assessed as effect on locomotor activity after 16 hrs post dose; type: ADME, organism-based; details: in vivo
Rattus norvegicus [6] = experiment: Reduction in water intake in 24 hrs food-deprived Sprague-Dawley rat assessed reduction in water intake level at 100 nmol, icv relative to control; type: functional
Rattus norvegicus [7] = experiment: Reduction in food intake in 24 hrs food-deprived Sprague-Dawley rat at 25 to 100 nmol, icv measured 2.5 hrs post dose relative to control; type: functional
Rattus norvegicus [8] = experiment: Reduction in body weight gain in non-food-deprived Sprague-Dawley rat at 13.5 mg/kg, ip qd for 22 days measured between day-31 and day-60 post dose; type: functional, organism-based
Rattus norvegicus [9] = experiment: Reduction in body weight gain in non-food-deprived Sprague-Dawley rat at 13.5 mg/kg, ip qd for 22 days measured between day-4 and day-31 post dose; type: functional, organism-based
Rattus norvegicus [10] = experiment: Reduction in body weight gain in non-food-deprived Sprague-Dawley rat at 13.5 mg/kg, ip qd for 22 days measured on day-1 and day-3 post dose; type: functional, organism-based
Rattus norvegicus [11] = experiment: Reduction in body weight gain in non-food-deprived Sprague-Dawley rat at 6.75 to 54 mg/kg, ip dosed 30 mins before beginning of dark cycle followed by exposure to standard chow pellets and measured 15.5 hrs post dose; type: functional, organism-based
Rattus norvegicus [12] = experiment: Reduction in water intake in non-food-deprived Sprague-Dawley rat at 6.75 to 54 mg/kg, ip dosed 30 mins before beginning of dark cycle followed by exposure to standard chow pellets and measured 15.5 hrs post dose; type: functional, organism-based
Rattus norvegicus [13] = experiment: Induction of sedation in ip dosed Sprague-Dawley rat assessed as relaxed behavior after 16 hrs post dose; type: organism-based; details: in vivo
[14] = biological target: G-protein coupled receptor 6 (Homo sapiens) (UniProt P46095); experiment: Activity at rat G-protein GSalpha fused GPR6 (unknown origin) expressed in HEK293 cell membranes assessed as effect on [35S]GTPgammaS binding pre-incubated for 5 to 10 mins followed by 60 mins incubation in presence of [35S]GTPgammaS by scintillation proximity assay; type: functional
Sequence of G-protein coupled receptor 6 (Homo sapiens) (P46095 whole entry, the tested form may be a part): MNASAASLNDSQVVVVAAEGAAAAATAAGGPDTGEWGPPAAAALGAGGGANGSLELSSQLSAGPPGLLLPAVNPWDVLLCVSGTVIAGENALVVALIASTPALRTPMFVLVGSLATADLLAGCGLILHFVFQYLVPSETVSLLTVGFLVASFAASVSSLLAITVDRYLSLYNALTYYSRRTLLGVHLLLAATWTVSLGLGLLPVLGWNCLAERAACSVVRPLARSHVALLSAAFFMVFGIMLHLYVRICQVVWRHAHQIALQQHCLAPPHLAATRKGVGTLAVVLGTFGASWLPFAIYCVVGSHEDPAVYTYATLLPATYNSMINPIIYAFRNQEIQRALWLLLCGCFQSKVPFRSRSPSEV

Rattus norvegicus [15] = experiment: Effect on motor function in ip dosed Sprague-Dawley rat assessed as effect on locomotor activity after 1.5 hrs post dose; type: ADME, organism-based; details: in vivo
Rattus norvegicus [16] = experiment: Reduction in 24 hrs food intake in 24 hrs food-deprived Sprague-Dawley rat at 6.75 to 54 mg/kg, ip followed by standard chow pellets feeding and measured for 6.5 hrs post dose; type: functional, organism-based
Rattus norvegicus [17] = experiment: Reduction in water intake in 24 hrs food-deprived Sprague-Dawley rat at 6.75 to 54 mg/kg, ip followed by standard chow pellets feeding and measured for 6.5 hrs post dose; type: functional, organism-based
Rattus norvegicus [18] = experiment: Reduction in body weight gain in 24 hrs food-deprived Sprague-Dawley rat at 6.75 to 54 mg/kg, ip followed by standard chow pellets feeding and measured for 6.5 hrs post dose; type: functional, organism-based
Rattus norvegicus [19] = experiment: Reduction in body weight gain in 24 hrs food-deprived Sprague-Dawley rat at 27 and 54 mg/kg, ip followed by standard chow pellets feeding and measured for 6.5 hrs post dose; type: functional, organism-based

## O=C(/N=C1\SSC2=NCCN21)c1cccs1
Rattus norvegicus [1]
  Activity: 16 g
Rattus norvegicus [2]
  Activity: Non-toxic
Rattus norvegicus [3]
  Activity: Toxic
Rattus norvegicus [4]
  Activity: Toxic
Rattus norvegicus [5]
  Activity: Toxic
Rattus norvegicus [6]
  inhibition (INH): <=50%
Rattus norvegicus [7]
  fold change (FC): <=6
Rattus norvegicus [8]
  Activity: Active
Rattus norvegicus [9]
  Activity: Active
Rattus norvegicus [10]
  Activity: Active
Rattus norvegicus [11]
  Activity: Active
Rattus norvegicus [12]
  Activity: Active
Rattus norvegicus [13]
  Activity: Toxic
[14]
  Activity: Active
Rattus norvegicus [15]
  Activity: Non-toxic
Rattus norvegicus [16]
  Activity: Active
Rattus norvegicus [17]
  Activity: Active
Rattus norvegicus [18]
  Activity: Active
Rattus norvegicus [19]
  Activity: Active
